Measurements as given in ChEMBL document CHEMBL1201862, “PubChem BioAssay data set” (2004).
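Briefly, cells in 96-well plates were exposed to five compound concentrations for 48 h, and endpoints were estimated by linear interpolation. Abbreviation: GI50, concentration required for 50% inhibition of growth.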 Calls of active or inactive are those of the source. Rule as the data show it: active = GI50 up to about 1.1 µM and inactive = higher.

What was measured:
Experiment in all cases: growth of human tumour cells (NCI), 48 h
786-0 = test system: 786-0
CAKI-1 = test system: CAKI-1
CCRF-CEM = test system: CCRF-CEM
COLO 205 = test system: COLO 205
EKVX = test system: EKVX
HCC 2998 = test system: HCC 2998
HL-60 = test system: HL-60
HOP-92 = test system: HOP-92
KM12 = test system: KM12
Malme-3M = test system: Malme-3M
OVCAR-4 = test system: OVCAR-4
OVCAR-5 = test system: OVCAR-5
SF-268 = test system: SF-268
SK-MEL-2 = test system: SK-MEL-2
SNB-75 = test system: SNB-75
U-251 = test system: U-251
DU-145 = test system: DU-145
Hs-578T = test system: Hs-578T
MDA-MB-231 = test system: MDA-MB-231
T47D = test system: T47D

SMILES	GI50 (786-0)	GI50 (CAKI-1)	GI50 (CCRF-CEM)	GI50 (COLO 205)	GI50 (EKVX)	GI50 (HCC 2998)	GI50 (HL-60)	GI50 (HOP-92)	GI50 (KM12)	GI50 (Malme-3M)	GI50 (OVCAR-4)	GI50 (OVCAR-5)	GI50 (SF-268)	GI50 (SK-MEL-2)	GI50 (SNB-75)	GI50 (U-251)	GI50 (DU-145)	GI50 (Hs-578T)	GI50 (MDA-MB-231)	GI50 (T47D)
O=C1Nc2ccccc2C12CCNC2Cc1ccccc1 (stereo unspecified)	> 100 µM (inactive)	> 100 µM (inactive)	> 100 µM (inactive)	> 100 µM (inactive)	> 100 µM (inactive)	> 100 µM (inactive)	> 100 µM (inactive)	76.6 µM (inactive)	> 100 µM (inactive)	> 100 µM (inactive)	> 100 µM (inactive)	> 100 µM (inactive)	> 100 µM (inactive)	> 100 µM (inactive)	> 100 µM (inactive)	> 100 µM (inactive)	–	–	–	–
CN(C)C(=S)Nc1nnc(Nc2ccccc2)s1	> 100 µM (inactive)	> 100 µM (inactive)	> 100 µM (inactive)	> 100 µM (inactive)	> 100 µM (inactive)	> 100 µM (inactive)	> 100 µM (inactive)	> 100 µM (inactive)	> 10 µM (inactive)	> 100 µM (inactive)	> 100 µM (inactive)	> 100 µM (inactive)	–	> 100 µM (inactive)	> 100 µM (inactive)	> 100 µM (inactive)	–	–	–	–
Cc1ccc2nc(-n3c(/C=C/c4ccccc4O)nc4ccccc4c3=O)sc2c1	> 100 µM (inactive)	> 100 µM (inactive)	16.5 µM (inactive)	> 100 µM (inactive)	19.8 µM (inactive)	> 100 µM (inactive)	> 100 µM (inactive)	> 100 µM (inactive)	> 100 µM (inactive)	–	> 100 µM (inactive)	> 100 µM (inactive)	–	> 100 µM (inactive)	> 100 µM (inactive)	> 100 µM (inactive)	> 100 µM (inactive)	> 100 µM (inactive)	> 100 µM (inactive)	–
O=c1c(F)cn2c(=O)n1CCCCCCCn1c(=O)c(F)cn(c1=O)CCCCCCC2	40.7 µM (inactive)	78.3 µM (inactive)	76 µM (inactive)	> 100 µM (inactive)	> 100 µM (inactive)	> 100 µM (inactive)	49.5 µM (inactive)	57.7 µM (inactive)	73.1 µM (inactive)	35.7 µM (inactive)	30.1 µM (inactive)	> 100 µM (inactive)	0.59 µM (active)	> 100 µM (inactive)	0.105 µM (active)	> 100 µM (inactive)	1.59 µM (inactive)	–	34 µM (inactive)	> 100 µM (inactive)
COc1ccc(N[C@H](C[S+]([O-])c2ccc(C)cc2)C(F)(F)F)cc1 (stereo partly specified)	> 100 µM (inactive)	> 100 µM (inactive)	> 100 µM (inactive)	> 100 µM (inactive)	> 100 µM (inactive)	> 100 µM (inactive)	> 100 µM (inactive)	> 100 µM (inactive)	> 100 µM (inactive)	> 100 µM (inactive)	> 100 µM (inactive)	> 100 µM (inactive)	–	> 100 µM (inactive)	> 100 µM (inactive)	> 100 µM (inactive)	> 100 µM (inactive)	–	> 100 µM (inactive)	> 100 µM (inactive)
COC(=O)/C=C/c1cc(OC)c(OC)c(OC)c1	> 100 µM (inactive)	> 100 µM (inactive)	> 100 µM (inactive)	> 100 µM (inactive)	> 100 µM (inactive)	> 100 µM (inactive)	> 100 µM (inactive)	> 100 µM (inactive)	> 100 µM (inactive)	> 100 µM (inactive)	> 100 µM (inactive)	–	> 100 µM (inactive)	> 100 µM (inactive)	41.6 µM (inactive)	–	–	–	–	–
COC1(OC)C(/C(N)=C\O)=NC(C)(C)N1O	> 100 µM (inactive)	> 100 µM (inactive)	37.1 µM (inactive)	57 µM (inactive)	> 100 µM (inactive)	> 100 µM (inactive)	20.4 µM (inactive)	> 100 µM (inactive)	> 100 µM (inactive)	> 100 µM (inactive)	> 100 µM (inactive)	> 100 µM (inactive)	–	> 100 µM (inactive)	66.2 µM (inactive)	> 100 µM (inactive)	> 100 µM (inactive)	–	> 100 µM (inactive)	–
C1OC1CO[C@@H]1CO[C@H]2[C@@H]1OC[C@H]2OCC1CO1 (stereo partly specified)	> 100 µM (inactive)	67.9 µM (inactive)	> 100 µM (inactive)	> 100 µM (inactive)	> 100 µM (inactive)	> 100 µM (inactive)	82.8 µM (inactive)	> 100 µM (inactive)	> 100 µM (inactive)	> 100 µM (inactive)	> 100 µM (inactive)	> 100 µM (inactive)	> 100 µM (inactive)	> 100 µM (inactive)	> 100 µM (inactive)	> 100 µM (inactive)	–	–	–	–
Cc1ccc(C2(O)CC(c3ccc([N+](=O)[O-])o3)=NN2C(=O)COc2ccc(Cl)cc2)cc1 (stereo unspecified)	4.45 µM (inactive)	12.6 µM (inactive)	–	3.62 µM (inactive)	6.3 µM (inactive)	6 µM (inactive)	1.75 µM (inactive)	7.93 µM (inactive)	4.66 µM (inactive)	11.6 µM (inactive)	5.98 µM (inactive)	37.2 µM (inactive)	5.85 µM (inactive)	4.44 µM (inactive)	13.6 µM (inactive)	2.28 µM (inactive)	–	–	–	–
NC(=O)N/N=C(\Cc1cc(=O)oc2cc(O)ccc12)C(=O)Nc1ccccc1C(N)=O	> 100 µM (inactive)	> 100 µM (inactive)	> 100 µM (inactive)	> 100 µM (inactive)	> 100 µM (inactive)	61 µM (inactive)	> 100 µM (inactive)	> 100 µM (inactive)	> 100 µM (inactive)	–	> 100 µM (inactive)	> 100 µM (inactive)	> 100 µM (inactive)	> 100 µM (inactive)	> 100 µM (inactive)	> 100 µM (inactive)	> 100 µM (inactive)	> 100 µM (inactive)	> 100 µM (inactive)	–
N#Cc1cc2c(n(C3OC(CO)C(O)C(O)C3O)c1=S)CCCCC2 (stereo unspecified)	> 100 µM (inactive)	> 100 µM (inactive)	> 100 µM (inactive)	> 100 µM (inactive)	–	> 100 µM (inactive)	> 100 µM (inactive)	> 100 µM (inactive)	> 100 µM (inactive)	> 100 µM (inactive)	> 100 µM (inactive)	> 100 µM (inactive)	> 100 µM (inactive)	> 100 µM (inactive)	> 100 µM (inactive)	> 100 µM (inactive)	> 100 µM (inactive)	> 100 µM (inactive)	> 100 µM (inactive)	–
Cc1cc(/N=N/c2ccccc2C)ccc1N	10.5 µM (inactive)	15.3 µM (inactive)	1.42 µM (inactive)	18.4 µM (inactive)	15.5 µM (inactive)	12.4 µM (inactive)	2.96 µM (inactive)	10.5 µM (inactive)	10.6 µM (inactive)	19 µM (inactive)	19.4 µM (inactive)	17.9 µM (inactive)	–	15.6 µM (inactive)	5.94 µM (inactive)	14.3 µM (inactive)	–	15.7 µM (inactive)	14.8 µM (inactive)	–
O=C1N[C@@H](O)[C@@H]2ON=C(c3ccccc3)[C@H]12	> 100 µM (inactive)	> 100 µM (inactive)	> 100 µM (inactive)	> 100 µM (inactive)	> 100 µM (inactive)	> 100 µM (inactive)	> 100 µM (inactive)	> 100 µM (inactive)	> 100 µM (inactive)	> 100 µM (inactive)	> 100 µM (inactive)	> 100 µM (inactive)	> 100 µM (inactive)	> 100 µM (inactive)	> 100 µM (inactive)	> 100 µM (inactive)	–	–	–	–
C1=C2SSC3=CC=C(SSc4ccc(s4)SSC4=CC=C(SSC(=C1)S2)S4)S3	> 100 µM (inactive)	> 100 µM (inactive)	> 100 µM (inactive)	> 100 µM (inactive)	> 100 µM (inactive)	> 100 µM (inactive)	–	> 100 µM (inactive)	> 100 µM (inactive)	> 100 µM (inactive)	> 100 µM (inactive)	> 100 µM (inactive)	> 100 µM (inactive)	> 100 µM (inactive)	> 100 µM (inactive)	> 100 µM (inactive)	> 100 µM (inactive)	–	> 100 µM (inactive)	> 100 µM (inactive)
O=c1oc2ccccc2n1CCN1CCCCC1	> 100 µM (inactive)	> 100 µM (inactive)	> 100 µM (inactive)	> 100 µM (inactive)	> 100 µM (inactive)	–	> 100 µM (inactive)	–	> 100 µM (inactive)	> 100 µM (inactive)	–	> 100 µM (inactive)	> 100 µM (inactive)	> 100 µM (inactive)	> 100 µM (inactive)	> 100 µM (inactive)	> 100 µM (inactive)	> 100 µM (inactive)	> 100 µM (inactive)	–
c1ccc(SC23C4C5C6C4C2C6C53)nc1 (stereo unspecified)	> 100 µM (inactive)	> 100 µM (inactive)	> 100 µM (inactive)	> 100 µM (inactive)	> 100 µM (inactive)	> 100 µM (inactive)	11.5 µM (inactive)	> 100 µM (inactive)	> 100 µM (inactive)	> 100 µM (inactive)	> 100 µM (inactive)	> 100 µM (inactive)	> 31.6 µM (inactive)	> 100 µM (inactive)	> 77.4 µM (inactive)	> 100 µM (inactive)	–	–	–	–
